In patent US20170020838A1, “TREATMENT FOR RESPIRATORY DISEASE” (MUCOKINETICA LIMITED, priority 2014, published 2017):

Biological target: T1, Amiloride-sensitive sodium channels (ENaC) (Sus scrofa, UniProt A0A480QJ99+F1RPF1+I3LGX7)
T1 construct: placed inside the trachea in contact with the tracheal epithelium; from tissue; host or cells: ex vivo pig trachea (tracheal epithelium)
T1 sequence (A0A480QJ99 1-650): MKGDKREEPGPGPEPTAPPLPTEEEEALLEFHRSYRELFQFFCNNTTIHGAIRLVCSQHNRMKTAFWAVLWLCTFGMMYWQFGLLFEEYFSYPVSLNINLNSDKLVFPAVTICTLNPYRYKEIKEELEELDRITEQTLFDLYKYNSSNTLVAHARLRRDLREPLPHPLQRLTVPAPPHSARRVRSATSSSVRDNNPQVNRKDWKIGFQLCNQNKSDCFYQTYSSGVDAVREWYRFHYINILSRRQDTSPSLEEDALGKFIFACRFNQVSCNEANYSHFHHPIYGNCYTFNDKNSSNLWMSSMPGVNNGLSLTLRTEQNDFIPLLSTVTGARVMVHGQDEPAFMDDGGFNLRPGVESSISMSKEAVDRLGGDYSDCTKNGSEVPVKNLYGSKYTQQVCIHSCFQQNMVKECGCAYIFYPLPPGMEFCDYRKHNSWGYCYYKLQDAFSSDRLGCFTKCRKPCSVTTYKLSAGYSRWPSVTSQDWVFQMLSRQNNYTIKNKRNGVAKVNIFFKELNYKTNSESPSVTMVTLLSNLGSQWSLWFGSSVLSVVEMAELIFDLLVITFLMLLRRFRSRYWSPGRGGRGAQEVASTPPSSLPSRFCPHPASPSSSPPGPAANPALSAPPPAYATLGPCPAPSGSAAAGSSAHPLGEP
T1 sequence (I3LGX7 1-644): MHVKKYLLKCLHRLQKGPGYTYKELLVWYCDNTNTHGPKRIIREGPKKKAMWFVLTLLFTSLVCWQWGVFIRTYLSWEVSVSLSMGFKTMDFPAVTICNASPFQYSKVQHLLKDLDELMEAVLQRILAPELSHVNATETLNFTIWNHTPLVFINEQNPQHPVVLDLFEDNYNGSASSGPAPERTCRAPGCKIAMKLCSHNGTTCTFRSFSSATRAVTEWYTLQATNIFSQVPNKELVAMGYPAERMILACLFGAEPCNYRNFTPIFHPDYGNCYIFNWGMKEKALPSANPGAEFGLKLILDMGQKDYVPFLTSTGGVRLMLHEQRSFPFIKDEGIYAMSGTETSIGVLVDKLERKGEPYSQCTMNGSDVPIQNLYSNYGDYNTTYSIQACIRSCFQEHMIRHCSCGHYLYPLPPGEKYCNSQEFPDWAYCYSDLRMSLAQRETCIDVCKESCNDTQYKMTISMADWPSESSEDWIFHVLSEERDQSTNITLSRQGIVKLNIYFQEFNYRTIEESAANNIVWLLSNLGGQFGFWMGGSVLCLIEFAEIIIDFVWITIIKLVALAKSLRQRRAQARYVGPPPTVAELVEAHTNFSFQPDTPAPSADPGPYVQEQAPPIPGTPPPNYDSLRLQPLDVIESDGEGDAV
T1 sequence (F1RPF1 1-652): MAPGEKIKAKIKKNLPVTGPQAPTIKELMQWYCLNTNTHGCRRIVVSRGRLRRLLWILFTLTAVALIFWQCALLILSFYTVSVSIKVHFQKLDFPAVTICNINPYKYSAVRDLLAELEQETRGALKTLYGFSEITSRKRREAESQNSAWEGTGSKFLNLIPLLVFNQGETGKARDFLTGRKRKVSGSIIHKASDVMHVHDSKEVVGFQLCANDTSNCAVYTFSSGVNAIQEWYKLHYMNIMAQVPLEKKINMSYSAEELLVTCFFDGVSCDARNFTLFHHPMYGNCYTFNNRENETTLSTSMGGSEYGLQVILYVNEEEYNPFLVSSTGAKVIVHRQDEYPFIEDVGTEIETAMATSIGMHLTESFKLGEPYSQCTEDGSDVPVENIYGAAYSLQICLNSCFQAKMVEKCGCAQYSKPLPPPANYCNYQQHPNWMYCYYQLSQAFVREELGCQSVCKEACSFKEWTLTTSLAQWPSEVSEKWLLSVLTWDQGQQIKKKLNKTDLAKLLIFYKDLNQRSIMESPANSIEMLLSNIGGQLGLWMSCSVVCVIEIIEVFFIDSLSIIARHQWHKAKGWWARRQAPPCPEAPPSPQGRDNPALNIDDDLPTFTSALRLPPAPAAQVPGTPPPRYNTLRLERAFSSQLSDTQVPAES
Experiment: Amiloride-sensitive ENaC-dependent tracheal PD, ex vivo pig trachea
Conditions: for baseline tracheal PD during perfusion of the agent / responses to 5 min amiloride perfusion during perfusion of the agent: perfused in BSS: Rx 3.10^−5M alone, 50 mM sodium gluconate, 0.1 mM-UTP; for baseline tracheal PD during perfusion of the agent / responses to 5 min amiloride perfusion during perfusion of the agent / AUC of amiloride-sensitive ENaC-dependent tracheal PD responses, analysis of variance: +50 mM-NaCl, combinations with 10^−5 M Rx; for responses to 5 min amiloride perfusion during perfusion of the agent / AUC of amiloride-sensitive ENaC-dependent tracheal PD responses, analysis of variance: 100 mosM-mannitol; for AUC of amiloride-sensitive ENaC-dependent tracheal PD responses, analysis of variance: AUC normalised to average of first four peaks, Rx 3.10^−5M alone
Method: (§1) FIG. 1 A description of the equipment used to measure electrical potential difference (PD) across the pig trachea ex vivo (FIG. 1A). Pig tracheas placed on a sloping radiator heated at 37° C. A reference electrode consisting of silicone tubing filled with Signa electrode cream was attached to the outer surface of the trachea. A double lumen recording electrode (FIG. 1B) was placed inside the trachea in contact with the tracheal epithelium. The inner tubing of the recording electrode was used to perfuse onto the surface of the trachea buffer solutions and buffer solutions containing drugs and agents. The outer part of the recording electrode was also filled with Signa electrode cream. The ends of the electrodes not in contact with the trachea were placed in Ringer buffer solution. Electrical contact to calomel half-cells in 3M-KCl solution was achieved by silicone tubing bridges filled with Signa electrode cream. The calomel half-cells were connected to a high impedance digital electrometer (Agilent U1252A). Digital PD values were recorded continuously every 1 second for the duration each study and were filed onto a PC.
as §1, with “Pig” for “FIG. 1 A description of the equipment used to measure electrical potential difference (PD) across the pig trachea ex vivo (FIG. 1A). Pig”, “were obtained from” for “placed on”, “local abattoir or Veterinary University. The lumen of each trachea was cleaned by gentle irrigation with BSS.” for “sloping radiator heated at 37° C.”, “trachea according to the diagram in FIG. 1A. Pig tracheas were placed on a sloping radiator heated at 37° C.” for “trachea.”, “duration of” for “duration”
During each study the amiloride-sensitive, ENaC-dependent component of tracheal PD was determined periodically by perfusion (at 1 ml/min) of buffer solution containing 3×10^−6 M amiloride onto the epithelial surface of the trachea for 5 min, followed by washout for 10 minutes with buffer solution without amiloride. Each response to amiloride was quantified by measuring the area under the curve (AUC) response (mV.min) to amiloride perfusion and washout.

| Compound | time for tracheal PD to reach plateau depolarisation following initiation of amiloride perfusion (3×10^−6 M amiloride perfused 5 min in BSS at 1 ml/min, mean of 23 tracheas) | time for tracheal PD to return to baseline after initiation of washout (after 5 min perfusion of amiloride, washout with BSS) | baseline tracheal PD during perfusion of the agent | responses to 5 min amiloride perfusion during perfusion of the agent | AUC of amiloride-sensitive ENaC-dependent tracheal PD responses, analysis of variance | down-regulation of amiloride-sensitive ENaC-dependent tracheal PD responses, dose series (doses 3.10^−8 M, 10^−7 M, 3.10^−7 M, 10^−6 M, 3.10^−6 M, and 10^−5 M, all doses) | responses to 5 min amiloride perfusion on final perfusion with BSS without the agent (washout 60 min with BSS) |
| --- | --- | --- | --- | --- | --- | --- | --- |
| N=C(N)NC(=O)c1nc(Cl)c(N)nc1N [amiloride] | about 2 min | approximately 5 min |  |  |  |  |  |
| O=C([O-])[C@H](O)[C@@H](O)[C@H](O)[C@H](O)CO.[Na+] [hyperosmotic sodium gluconate, sodium gluconate] |  |  | partially depolarise | decrease |  |  |  |
| N=C(N)Nc1ccc(C(=O)Oc2ccc3cc(C(=N)N)ccc3c2)cc1 [6-amidino-2-napthyl 4-guanidinobenzoate] |  |  | depolarise | decrease | significant reduction (p<0.0001) | Significant down-regulation |  |
| O=c1ccn([C@@H]2O[C@H](COP(=O)(O)OP(=O)(O)OP(=O)(O)O)[C@@H](O)[C@H]2O)c(=O)[nH]1 [UTP, uridine 5′-triphosphate] |  |  | partially depolarise | decrease |  |  |  |
| OC[C@@H](O)[C@@H](O)[C@H](O)[C@H](O)CO [hyperosmotic mannitol, mannitol] |  |  |  | decrease | significantly reduced |  | recover |
